Laboratory results as given in article PMC4279401 (Oncotarget, 2014).
“Also recorded” adds a separate entry of the source. Where two headings read alike, the source gives them in different places.

Tests used:
[1] = tested on: methylation at H3K4, H3K9, H3K27, H3K36 and H4K20; assay: Western blot of methylation at other histone lysines in MDA-MB231; type: cell-based, Human; details: at concentrations of <1 μM, in words
Protocol: (§1) 10^6 cells/well were incubated with increasing concentrations of a compound for 5 days and histones extracted with the EpiQuik™ Total Histone Extraction Kit (Epigentek) according to the manufacturer's protocol. Equal amounts of histones (2μg) were separated on SDS-PAGE and transferred to PVDF membranes. The blots were probed with primary antibodies, followed by anti-rabbit IgG (Thermo Scientific) secondary antibodies. For western blot analysis of MDA-MB231 xenograft tumors, tumors were harvested and frozen in liquid nitrogen. Histones were extracted and analyzed by immunoblotting as described above.

MDA-MB231 xenograft = MDA-MB231 xenograft mouse model; type: in vivo, athymic nude mice; details: 4 mg/kg/day for 28 days
Protocol: (§2) Female athymic nude mice (4 to 6 weeks old) were obtained from Charles River (Wilmington, MA, USA) and maintained under pathogen-free conditions. The use of athymic nude mice and their treatment were approved by the BCM Institutional Animal Care and Use Committee, and the experiments were conducted in strict compliance with the regulations. 2 ×10^6 MDA-MB-231 cells were injected into the upper right mammary fat pad of the recipient mouse and tumor growth and animal weights were monitored twice a week. The tumor volumes were calculated using the formula length × (width)^2/2. When the tumors reached a size of about 20–30 mm^3, mice were randomly segregated into control and treatment groups. Mice in the treatment group were implanted subcutaneously an osmotic pumps (Alzet model 2004) containing 2.8 mg of 3 in 200 μL of PBS. Animals were sacrificed when the volumes of tumors reaching ~1.5 cm^3. Log-rank analysis was used to determine statistical significance of the survival curves using Prism 5.0 (GraphPad).

MDA-MB231 [2] = assay: Transwell cell migration assay; type: cell-based, Human; details: MDA-MB231, Transwell with and without Matrigel, in words
Protocol: 5 × 10^4 cells/well were incubated with compounds for 14 days. For transwell migration assays, 5× 10^4 cells were plated in the top chamber with the non-coated membrane (24-well insert; pore size, […]; BD Biosciences). For invasion assays, 5× 10^4 cells were plated in the top chamber with Matrigel-coated membrane. The cells on the apical side of each insert were then scraped off after 22 h for both assays. The wells were washed with PBS, fixed with 100% methanol and stained with DAPI. Cells that had migrated to the basal side of the membrane were visualized and counted with a Nikon Eclipse TE2000-U microscope at 10×. Pictures of three random fields were obtained and the number of cells that had migrated quantified using ImageJ analysis software.

H3K79 methylation [3] = assay: Western blot of histone methylation in MDA-MB231; type: cell-based, Human; details: Homo sapiens, MDA-MB-231, read-out: IC50 of H3K79 methylation inhibition
Protocol: Human cell lines BT549, MDA-MB231, MCF-7, MDA-MB157, HCC70, A549 and NB4 were obtained from the American Type Culture Collection (ATCC) and cultured using ATCC recommended conditions. Primary antibodies against H3K79me2, H3K27me3, H3K4me3, H3K36me2, H4K20me3, H3K9me-pan were purchased from Cell Signaling (Danvers, MA). siRNA experiments were performed by transfecting MDA-MB-231 cells with X-tremeGENE Transfection Reagent (Roche) and 10 nM siRNA (Invitrogen), according to the manufacturer's protocol.
as §1

MDA-MB231 cells [4] = assay: CD44/CD24 flow cytometry; type: cell-based, Human; details: MDA-MB231, FACS, in words
Protocol: (§3) 5 × 10^4 cells/well were incubated with compounds for 14 days. The ALDH activity of cells was determined by using the ALDEFLUOR assay kit (StemCell Technologies) according to the manufacturer's instructions. Combinations of fluorochrome-conjugated monoclonal antibodies against human CD44-FITC and CD24-PE were obtained from BD Biosciences. Primary antibodies or the respective isotype controls (BD Biosciences) were added to the cell suspension, according to the manufacturer's recommendation, and incubated at 4°C for 20 min. Dead cells were eliminated using propidium iodide (Sigma). The labelled cells were analyzed on a FACS Calibur (BD Biosciences/Applied Biosystems).

MDA-MB231 [5] = assay: Cell proliferation, MTT assay; type: cell-based; details: Homo sapiens
MDA-MB231 cells [6] = assay: Cell cycle analysis, propidium iodide FACS; type: cell-based, Human
Protocol: (§4) For apoptosis and cell cycle analysis, 10^5 cells/well were incubated with increasing concentrations of a compound for 7 or 10 days. Apoptosis was determined using the FITC Annexin V Apoptosis Detection Kit I (BD Bioscience) according to the manufacturer's protocol. Cells for cell cycle analysis were fixed in cold 70% ethanol at 4°C and stained with Propidium iodide (Sigma-Aldrich) (20 μg/ml) and RNase A (10 μg/ml) for 30min. Cells were analyzed using a FACS Calibur (BD Biosciences/Applied Biosystems) and data were processed using the program Flowjo (version7.6.5).

MDA-MB231 [7] = assay: Secondary mammosphere assay; type: cell-based, Human; details: MDA-MB231, in words
Protocol: The protocol for mammosphere assay was performed using a published method. The numbers of secondary mammospheres in each well were counted using a Leica MZ12.5 microscope.

H3K27 methylation = assay: Western blot of histone methylation in MDA-MB231; type: cell-based; details: Homo sapiens, MDA-MB-231, Fig. 4b, read-out: IC50 against H3K27 methylation
Protocol: as §1

MDA-MB231 cells [8] = assay: ALDEFLUOR assay; type: cell-based, Human; details: in words
Protocol: as §3

MDA-MB231 cells [9] = assay: Apoptosis, Annexin V FACS; type: cell-based, Human; details: 20 nM, day 7
Protocol: as §4

MCF-7 = assay: Cell proliferation, MTT assay; type: cell-based; details: Homo sapiens
H3K79 methylation [10] = assay: Western blot of xenograft tumor tissues; type: in vivo, athymic nude mice; details: day 14, Western blot, in words
Protocol: as §1
as §2, with “Mice in the treatment group were implanted subcutaneously an osmotic pumps (Alzet model 2004) containing 2.8 mg of 3 in 200 μL of PBS. Animals were sacrificed when the volumes of tumors reaching ~1.5 cm^3. Log-rank analysis was used to determine statistical significance of the survival curves using Prism 5.0 (GraphPad).” left out

[11] = tested on: MDA-MB231, BT549 and MCF-7 breast cancer cells; assay: Cell proliferation, MTT assay, DOT1L+ breast cancer cells; type: cell-based, Human
BT549 = assay: Cell proliferation, MTT assay; type: cell-based; details: Homo sapiens
SAHH = details: read-out: Ki against SAHH; cited from earlier work
Toxicity in treated mice = type: in vivo
Protocol: as §2

Nc1ncnc2c1ncn2[C@@H]1C=C(CO)[C@@H](O)[C@H]1O [Compound 3, neplanocin A]
inhibitory activity against methylation at H3K4, H3K9, H3K27, H3K36 and H4K20 [1]: no or negligible inhibitory activities; also recorded: negligible effects
animal survival (MDA-MB231 xenograft; in words): significantly prolonged animal survivals
tumor growth (MDA-MB231 xenograft; in words): significantly inhibited
tumor growth inhibition (MDA-MB231 xenograft; subcutaneous osmotic pump): > 95%
tumors exhibiting regression during the treatment (MDA-MB231 xenograft; remained 1-3 mm in diameter): Four tumors (out of nine)
cell migration and invasion (MDA-MB231 [2]): more pronounced activity; also recorded: reduced cell migration and invasiveness
IC50 (H3K79 methylation [3]): ~50 nM
CD44+/CD24− cell population (MDA-MB231 cells [4]): reduced; also recorded: decreased
cell population expressing high levels of CD24 (MDA-MB231 cells [4]): significantly expanded; also recorded: increased cell population expressing high levels of CD24
EC50 (MDA-MB231 [5]; MDA-MB-231, 72 h, MDA-MB231, 3-day treatment, read-out: Anti-proliferative activity EC50): 930 nM
EC50 (MDA-MB231 [5]; MDA-MB-231, 360 h, MDA-MB231, 15-day, read-out: EC50, 15-day treatment): 9 nM
sub-G1 phase cell population (MDA-MB231 cells [6]; MDA-MB231, in words): increased sub-G1 population
sub-G phase cell population after treatment (MDA-MB231 cells [6]; MDA-MB231, control 4.4%): 21.2%
secondary mammosphere formation (MDA-MB231 [7]): more pronounced activity; also recorded: inhibited secondary mammosphere formation
IC50 (H3K27 methylation): > 6000 nM
ALDH+ cell population (MDA-MB231 cells [8]): decreased; also recorded: reduced
apoptosis of MDA-MB231 cells (MDA-MB231 cells [9]): 12.1%
EC50 (MCF-7; MCF7, 72 h, MCF-7, 3-day treatment, read-out: Anti-proliferative activity EC50): 910 nM
EC50 (MCF-7; MCF7, 360 h, MCF-7, 15-day, read-out: EC50, 15-day treatment): 51 nM
H3K79 methylation in tumor tissues (H3K79 methylation [10]): only significantly reduced H3K79 methylation levels; also recorded: only H3K79 methylation was significantly inhibited
EC50 ([11]; Homo sapiens, 72 h, three DOT1L+ breast cancer cells, 3-day, read-out: EC50, 3-day treatment): 900 to 2600 nM
times more active in 15-day than in the corresponding 3-day data ([11]; MDA-MB231, BT549, MCF-7): 18 - 100 ×
EC50 (BT549; BT-549, 72 h, BT549, 3-day treatment, read-out: Anti-proliferative activity EC50): 2600 nM
EC50 (BT549; BT-549, 360 h, BT549, 15-day, read-out: EC50, 15-day treatment): 29 nM
Ki (SAHH): 8.4 nM
toxicities (Toxicity in treated mice; 4 mg/kg/day for 28 days, in words): no obvious toxicities
changes in blood cell counts, hemoglobin and body weight (Toxicity in treated mice; 4 mg/kg/day, day 28, in words): did not cause significant changes; also recorded: no significant changes
